In patent US12324858B2, “Pharmaceutical formulation and system and method for delivery” (Rilento Pharma, LLC, priority 2018, dated 2025):
Entries after “also recorded” stand apart in the source; their conditions may differ. Counter-ions that a name gives are not always drawn.

Key:
[1] = Background UV spectra of individual ingredients in pH-2 water; format: physicochemical
Description: Using the same instrument parameters and cuvettes, spectra were also acquired for each individual ingredient in the mixtures for the purpose of determining background contributions to the overall absorbance spectra that were obtained for the fully formulated mixtures. […] In this way, the background experiments were representative of the highest degree of spectral background contribution that might be potentially observed for the fully formulated devices if the devices were to completely disintegrate and dissolve during the water-soak experiment.
BUP-HCl is known to be a strong chromophore with a documented UV absorption maximum at 262 nm (Corciova, A., Eur. Chem. Bull., 2012, 2(8), 554-557).

[2] = Suspension test of candidate liquids with GLBG (gelation); format: physicochemical; conditions: for Gelation of GLBG suspended in the liquid: 2/1 w/w liquid to GLBG, monitoring window 0-24 and 0-48 hours; for Suitable for use in a hydrophilic device / Suitable for use in a hydrophobic device: suspension test with GLBG
Method: The suspensions are then qualitatively monitored as a function of time for physical changes, such as the onset of gelation, by using any one of a variety of possible qualitative or quantitative techniques. Note that other liquid to gelatin ratios can also be employed, including ratios that are intended for use in various end-applications. […] Monitoring times of suspensions can include various time points after the suspensions are mixed, including for example, 5 minutes after mixing, 0.5 hours after mixing, 1 hour after mixing, 5 hours after mixing, 24 hours after mixing, 48 hours after mixing, 1 week after mixing, 1 month after mixing, 6 months after mixing, 1 year after mixing, and even 2 to 5 years after mixing. […] Of course, quantitative measurements can also be employed if so desired (e.g., Brookfield viscosity, parallel plate dynamic mechanical techniques, etc.). […] Conversely, if there are signs of gelation, including for example, any one or more of the following responses before the end of the monitoring time window: 1) development of elastic recovery; 2) visualization of permanent coalescence of gelatin particulates; or 3) solid network formation with loss of pourability, then these liquids are by definition excluded as candidates for use in more hydrophobic formulations, and are instead considered as candidate liquids for use in preparing more hydrophilic formulations. […] A spatula was used to stir the ingredients to create a suspension. The suspensions were then allowed to set under static conditions and were qualitatively monitored as a function of time. Results at t=5 minutes after mixing, t=0.5 hours after mixing, t=5 hours after mixing, t=24 hours after mixing, and at t=48 hours after mixing were reported. The tests were conducted at 20 degrees C. with one exception, one of the tests was conducted at 27 degrees C. to ensure that the carrier was above its melt point and in its liquid state.

[3] = mineral oil estimated, cited from earlier work; for HANtotal: Hansen Solubility Parameter, total; for HAN δDispersion / HAN δH-bonding / HAN δPolar: Hansen

| Gelation of GLBG suspended in the liquid [2] | Suitable for use in a hydrophilic device [2] | Suitable for use in a hydrophobic device [2] | Molecule | HAN δDispersion [3] [MPa^1/2] | HAN δH-bonding [3] [MPa^1/2] | HAN δPolar [3] [MPa^1/2] | other results |
| --- | --- | --- | --- | --- | --- | --- | --- |
|  |  |  | CCCCN1CCCCC1C(=O)Nc1c(C)cccc1C (stereo not shown) [BUP-HCl, bupivacaine] |  |  |  | Solubility in pH-2 water ([1]; mildly acidic conditions, pH-2 water (dilute HCl)): completely soluble under these conditions |
| lead to gelation of gelatin | Yes | No | OCC(O)CO [Glycerin] |  |  |  | Gelation of GLBG suspended in the liquid ([2]; listed as glycerin): work time window prior to the onset of gelation was observed to be significantly longer |
| no signs of gelation | No | Yes | CCCCCCCC(=O)OCC(COC(=O)CCCCCCC)OC(=O)CCCCCCC [caprylic triglyceride] | 16.2 | 4 | 3.4 | HANtotal [3]: 17.0 MPa^1/2 |
| no signs of gelation | No | Yes | CCCCCCCCCCCCCCCC(=O)OC(C)C [isopropyl palmitate] |  |  |  |  |
|  |  |  | CCCCN1CCCCC1C(=O)Nc1c(C)cccc1C (stereo not shown) [BUP free base, bupivacaine] |  |  |  | Relative Absorbance at 270 nm at t = 24 hrs. ([1]; individual ingredient in pH-2 water, background UV spectrum): > or = 4 (i.e.,; Solubility in water ([1]; water): low solubility in water |
|  |  |  | OCC(O)CO [Glycerol] | 17.4 | 29.3 | 12.1 | HANtotal [3]: 36.2 MPa^1/2; HSP ([3]; Hildebrand Solubility Parameter): 33.8 MPa^1/2 |

| Molecule | Gelation of GLBG suspended in the liquid [2] | Suitable for use in a hydrophilic device [2] | Suitable for use in a hydrophobic device [2] | HAN δDispersion [3] [MPa^1/2] | HAN δH-bonding [3] [MPa^1/2] | HAN δPolar [3] [MPa^1/2] | other results |
| --- | --- | --- | --- | --- | --- | --- | --- |
| water | lead to gelation of gelatin; also recorded: gelation and elastic network formation was observed to begin almost immediately | Yes | No | 15.5 | 42.4 | 16.0 |  |
